Reference: the supplement of paper PMC10627819

How the values were obtained:
B. subtilis 168 [1] = test: fitness (endpoint OD595 vs no drug) (fraction); higher = more growth
In short: (§1)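 Volumes were 30 µl per well, or 55 µl for S. pneumoniae, in 384-well plates inoculated at OD595 0.01. Media were TSB, LB Lennox or CY at 37 °C, and OD595 was read every 30 min for 14 h with first-reading background subtraction. Fitness is the ratio of optical density at stationary-phase entry to the robust mean of no-drug controls. That ratio is capped at 1.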

S. aureus Newman [2] = test: as above
In short: as §1

B. subtilis 168 [3] = test: Bliss interaction score (quartile over a dose matrix) (fitness difference); higher = more antagonism (negative = synergy)
In short: (§2)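 Each plate was normalised to the robust mean of its own no-drug wells, using OD595 at entry into stationary phase, with values capped at 1. This normalised growth is the fitness value. The Bliss score is the difference between observed and product-expected fitness, with single-drug fitness inferred from the combination data and quartiles taken over technical, biological and donor/recipient replicates.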

S. aureus DSM 20231 = test: as above
In short: as §2

S. pneumoniae D39V = test: as above
In short: as §2

S. aureus Newman [4] = test: as above
In short: as §2

[5] = first compound 0.25 µg/mL, partner 0.25 µg/mL
[6] = first compound 0.25 µg/mL, partner 0.5 µg/mL
[7] = first compound 0.25 µg/mL, partner 1 µg/mL
[8] = first compound 0.5 µg/mL, partner 0.25 µg/mL
[9] = first compound 0.5 µg/mL, partner 0.5 µg/mL
[10] = first compound 0.5 µg/mL, partner 1 µg/mL
[11] = first compound 0.25 µg/mL, partner 37.5 µg/mL, main component drawn
[12] = first compound 0.25 µg/mL, partner 75 µg/mL, main component drawn
[13] = first compound 0.5 µg/mL, partner 37.5 µg/mL, main component drawn
[14] = first compound 0.5 µg/mL, partner 75 µg/mL, main component drawn
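Wherever Bliss interaction score (quartile over a dose matrix) is given: first quartile when negative (synergy) and third quartile when positive (antagonism).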

SMILES: CC[C@H]1OC(=O)[C@H](C)[C@@H](O[C@H]2C[C@@](C)(OC)[C@@H](O)[C@H](C)O2)[C@H](C)[C@@H](O[C@@H]2O[C@H](C)C[C@H](N(C)C)[C@H]2O)[C@](C)(O)C[C@@H](C)CN(C)[C@H](C)[C@@H](O)[C@]1(C)O [Azithromycin] + CC1=C(C(=O)O)N2C(=O)[C@@H](NC(=O)[C@H](N)c3ccccc3)[C@H]2SC1 [Cephalexin]
- fitness (B. subtilis 168 [1]; first compound 0.25 µg/mL, partner 0.125 µg/mL): 0.856
- fitness (B. subtilis 168 [1]; [5]): 0.936
- fitness (B. subtilis 168 [1]; [6]): 0.899
- fitness (B. subtilis 168 [1]; [7]): ≥ 1
- fitness (B. subtilis 168 [1]; first compound 0.5 µg/mL, partner 0.125 µg/mL): 0.823
- fitness (B. subtilis 168 [1]; [8]): 0.845
- fitness (B. subtilis 168 [1]; [9]): 0.849
- fitness (B. subtilis 168 [1]; [10]): 0.867
- fitness (B. subtilis 168 [1]; first compound 1 µg/mL, partner 0.125 µg/mL): 0.543
- fitness (S. aureus Newman [2]; first compound 0.125 µg/mL, partner 0.25 µg/mL): 0.892
- fitness (S. aureus Newman [2]; first compound 0.125 µg/mL, partner 0.5 µg/mL): 0.918
- fitness (S. aureus Newman [2]; first compound 0.125 µg/mL, partner 1 µg/mL): 0.907
- fitness (S. aureus Newman [2]; [5]): 0.893
- fitness (S. aureus Newman [2]; [6]): 0.915
- fitness (S. aureus Newman [2]; [7]): 0.913
- fitness (S. aureus Newman [2]; [8]): 0.739
- fitness (S. aureus Newman [2]; [9]): 0.719
- fitness (S. aureus Newman [2]; [10]): 0.728
- Bliss interaction score (B. subtilis 168 [3]): 0.0757
- Bliss interaction score (S. aureus DSM 20231): -0.0843
- Bliss interaction score (S. pneumoniae D39V): -0.0716
- Bliss interaction score (S. aureus Newman [4]): 0.0763

SMILES: CC[C@H]1OC(=O)[C@H](C)[C@@H](O[C@H]2C[C@@](C)(OC)[C@@H](O)[C@H](C)O2)[C@H](C)[C@@H](O[C@@H]2O[C@H](C)C[C@H](N(C)C)[C@H]2O)[C@](C)(O)C[C@@H](C)CN(C)[C@H](C)[C@@H](O)[C@]1(C)O [Azithromycin] + CC(C1CCC(C(O1)OC2C(CC(C(C2O)OC3C(C(C(CO3)(C)O)NC)O)N)N)N)NC [Gentamicin]
- fitness (B. subtilis 168 [1]; first compound 0.25 µg/mL, partner 0.0625 µg/mL, main component drawn): 0.847
- fitness (B. subtilis 168 [1]; first compound 2 µg/mL, partner 0.0625 µg/mL, one replicate, main component drawn): 0.482
- fitness (B. subtilis 168 [1]; first compound 2 µg/mL, partner 0.125 µg/mL, one replicate, main component drawn): 0.322
- fitness (B. subtilis 168 [1]; first compound 2 µg/mL, partner 0.25 µg/mL, one replicate, main component drawn): 0.337
- fitness (S. aureus Newman [2]; first compound 0.125 µg/mL, partner 0.375 µg/mL, one replicate, main component drawn): 0.946
- fitness (S. aureus Newman [2]; first compound 0.125 µg/mL, partner 0.5 µg/mL, main component drawn): 0.879
- fitness (S. aureus Newman [2]; first compound 0.125 µg/mL, partner 0.75 µg/mL, one replicate, main component drawn): 0.936
- fitness (S. aureus Newman [2]; first compound 0.125 µg/mL, partner 1 µg/mL, main component drawn): 0.899
- fitness (S. aureus Newman [2]; first compound 0.125 µg/mL, partner 1.5 µg/mL, one replicate, main component drawn): 0.954
- fitness (S. aureus Newman [2]; first compound 0.125 µg/mL, partner 2 µg/mL, main component drawn): 0.942
- fitness (S. aureus Newman [2]; first compound 0.25 µg/mL, partner 0.375 µg/mL, one replicate, main component drawn): ≥ 1
- fitness (S. aureus Newman [2]; first compound 0.25 µg/mL, partner 0.5 µg/mL, main component drawn): 0.851
- fitness (S. aureus Newman [2]; first compound 0.25 µg/mL, partner 0.75 µg/mL, one replicate, main component drawn): 0.943
- fitness (S. aureus Newman [2]; first compound 0.25 µg/mL, partner 1 µg/mL, main component drawn): 0.901
- fitness (S. aureus Newman [2]; first compound 0.25 µg/mL, partner 1.5 µg/mL, one replicate, main component drawn): 0.911
- fitness (S. aureus Newman [2]; first compound 0.25 µg/mL, partner 2 µg/mL, main component drawn): 0.958
- fitness (S. aureus Newman [2]; first compound 0.5 µg/mL, partner 0.375 µg/mL, one replicate, main component drawn): 0.711
- fitness (S. aureus Newman [2]; first compound 0.5 µg/mL, partner 0.5 µg/mL, main component drawn): 0.742
- fitness (S. aureus Newman [2]; first compound 0.5 µg/mL, partner 0.75 µg/mL, one replicate, main component drawn): 0.62
- fitness (S. aureus Newman [2]; first compound 0.5 µg/mL, partner 1 µg/mL, main component drawn): 0.827
- fitness (S. aureus Newman [2]; first compound 0.5 µg/mL, partner 1.5 µg/mL, one replicate, main component drawn): 0.571
- fitness (S. aureus Newman [2]; first compound 0.5 µg/mL, partner 2 µg/mL, main component drawn): 0.79
- Bliss interaction score (B. subtilis 168 [3]; main component drawn): 0.305
- Bliss interaction score (S. aureus DSM 20231; main component drawn): 0.106
- Bliss interaction score (S. pneumoniae D39V; main component drawn): -0.0659
- Bliss interaction score (S. aureus Newman [4]; main component drawn): 0.118

SMILES: CC[C@H]1OC(=O)[C@H](C)[C@@H](O[C@H]2C[C@@](C)(OC)[C@@H](O)[C@H](C)O2)[C@H](C)[C@@H](O[C@@H]2O[C@H](C)C[C@H](N(C)C)[C@H]2O)[C@](C)(O)C[C@@H](C)CN(C)[C@H](C)[C@@H](O)[C@]1(C)O [Azithromycin] + CC[C@H](C)[C@H](N)C1=N[C@H](C(=O)N[C@@H](CC(C)C)C(=O)N[C@H](CCC(=O)O)C(=O)N[C@H](C(=O)N[C@H]2CCCCNC(=O)[C@H](CC(N)=O)NC(=O)[C@@H](CC(=O)O)NC(=O)[C@H](Cc3cnc[nH]3)NC(=O)[C@@H](Cc3ccccc3)NC(=O)[C@H]([C@@H](C)CC)NC(=O)[C@@H](CCCN)NC2=O)[C@@H](C)CC)CS1 [Bacitracin]
- fitness (B. subtilis 168 [1]; [11]): 0.907
- fitness (B. subtilis 168 [1]; [12]): 0.845
- fitness (B. subtilis 168 [1]; first compound 0.25 µg/mL, partner 150 µg/mL, main component drawn): 0.837
- fitness (B. subtilis 168 [1]; [13]): 0.773
- fitness (B. subtilis 168 [1]; [14]): 0.76
- fitness (B. subtilis 168 [1]; first compound 2 µg/mL, partner 37.5 µg/mL, one replicate, main component drawn): 0.0502
- fitness (B. subtilis 168 [1]; first compound 2 µg/mL, partner 75 µg/mL, one replicate, main component drawn): 0.0262
- fitness (B. subtilis 168 [1]; first compound 2 µg/mL, partner 150 µg/mL, one replicate, main component drawn): 0.0177
- fitness (S. aureus Newman [2]; first compound 0.125 µg/mL, partner 18.75 µg/mL, main component drawn): 0.654
- fitness (S. aureus Newman [2]; first compound 0.125 µg/mL, partner 75 µg/mL, main component drawn): 0.0145
- fitness (S. aureus Newman [2]; [11]): 0.0979
- fitness (S. aureus Newman [2]; [12]): 0.0091
- fitness (S. aureus Newman [2]; [13]): 0.0136
- fitness (S. aureus Newman [2]; [14]): 0.0029
- Bliss interaction score (B. subtilis 168 [3]; main component drawn): 0.0819
- Bliss interaction score (S. aureus DSM 20231; main component drawn): -0.0556
- Bliss interaction score (S. pneumoniae D39V; main component drawn): 0.0418
- Bliss interaction score (S. aureus Newman [4]; main component drawn): -0.101
